Experimental findings from patent publication US20260028571A1, “BIOREACTORS FOR PERFUSING CELLS” (Ramot at Tel-Aviv University Ltd., priority 2023, published 2026) are described below.

Experiment [1] deals with malignant mucosal melanoma. Description: Clinical treatment of the mucosal melanoma patient. The format is in vivo, human. From the text:
(§1) Blood and tissue samples from a mucosal melanoma, a patient having the following characteristics: • person, malignant mucosal melanoma. • Tissue site: resected from the groin lymph node
This was followed by additional cycles of nivolumab post-surgery as adjuvant therapy resulting in further PD.
The perfusion system could have anticipated the unfavorable prognosis associated with Nivolumab (which was what was originally prescribed by the doctor) within 1-2 weeks, potentially sparing the patient six months of ineffective treatment, side effects, and the high costs as well as the time in which further mutations occurred.

In experiment [2] the test system is patient-derived mucosal melanoma cells. Description: Drug testing on patient-derived 3D tumor organoids in the perfusion system. The format is cell-based, human. The conditions noted are these: 96-well 3D tumor organoids with patient-derived PBMCs, FIG. 7. The procedure:
as §1
96-well 3D tumor organoids were generated from the tumor sample (i.e. tumor cells and microenvironment cells, blood vessels and PBMCs were created from the samples. The tumor organoids were cultured in a plate similar to that shown in FIG. 1A. Each treatment was tested on multiple 3D organoids, each treatment corresponding to a single sequence of connected cell wells.
Multiple treatments and combinations were tested on the patient-derived mucosal melanoma cells and the patient-derived PBMCs, as summarized in FIG. 7.

In the case of `CNC(=O)c1cc(Oc2ccc(NC(=O)Nc3ccc(Cl)c(C(F)(F)F)c3)c(F)c2)ccn1` [Regorafenib], the “reduction in tumor size” value in experiment [1] (within a two-week timeframe) is listed as 50%. Besides, the efficacy in experiment [2] worked out at 93%.

Take Atezolizumab: the response in experiment [2] stood at 0%.

Take Nivolumab: the clinical outcome in experiment [1] (additional cycles post-surgery as adjuvant therapy) was “further PD”; in experiment [1] (neoadjuvant therapy, 4 cycles), “progressive disease (PD)”. Also, the response in experiment [2] was determined as 0%.

Take Pembrolizumab: the response in experiment [2] came out at 0%.
